Data on 43 compounds can be found in patent publication US7868005B2, “Pyrazinyl substituted piperazine-piperidines with CXCR3 antagonist activity” (Schering Corporation, priority 2005, dated 2011).

pIC50: −log10 of the molar value. Bounds are passed on as bounds.

In the experiment the target is T1, human CXCR3 (N-delta 4) (Homo sapiens, UniProt P49682).
T1 construct: CD8 leader (N); Flag; expressed in transfected cells; membranes prepared
T1 sequence (P49682 5-368 limits assumed): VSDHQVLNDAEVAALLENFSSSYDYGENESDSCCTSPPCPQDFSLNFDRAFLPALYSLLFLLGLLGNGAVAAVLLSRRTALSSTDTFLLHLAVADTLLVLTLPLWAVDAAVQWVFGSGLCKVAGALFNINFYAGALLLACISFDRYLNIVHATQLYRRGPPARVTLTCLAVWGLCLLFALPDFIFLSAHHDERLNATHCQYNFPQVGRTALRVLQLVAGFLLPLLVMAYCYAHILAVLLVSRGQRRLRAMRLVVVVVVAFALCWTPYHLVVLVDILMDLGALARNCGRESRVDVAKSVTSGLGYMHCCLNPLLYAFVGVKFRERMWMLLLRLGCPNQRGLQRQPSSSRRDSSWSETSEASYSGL
Description: Human CXCR3 (N-delta 4) Scintillation Proximity Assay (SPA), [125I] IP-10 binding to Ba/F3-hCXCR3 membranes. The note with it: IC50 rating, Table 1; read-out: IC50.
Take `CC[C@H]1CN(c2nc(N)c(C(=O)NCCO)nc2Cl)CCN1C1CCN(Cc2ccc(Cl)cc2C2=NCCN2)CC1` [compound 167]: the pIC50 is more than 7.60. The figure for `CC[C@H]1CN(c2nc(N)c(C(=O)NCCO)nc2Cl)CCN1C1CCN(Cc2ccc(OC(F)(F)F)cc2OCCO)CC1` [compound 168] is more than 7.60; for `CC[C@H]1CN(c2nc(N)c(C(=O)NCCO)nc2Cl)CCN1C1CCN(Cc2ccc(Cl)cc2OCCCO)CC1` [compound 169] it is more than 7.60; for `CC[C@H]1CN(c2nc(N)c(C(=O)NCCO)nc2Cl)CCN1C1CCN(C(CCO)c2ccc(Cl)cc2)CC1` (stereo partly shown) [compound 170] it is more than 7.60.

Turning to `CC[C@H]1CN(c2nc(N)c(C(=O)NCCO)nc2Cl)CCN1C1CCN(Cc2ccc(Cl)cc2-c2cnc(N)nc2)CC1` [compound 171], the pIC50 was more than 7.60.

Consider `CC[C@H]1CN(c2nc(N)c(C(=O)NCCO)nc2Cl)CCN1C1CCN(Cc2ccc(F)c(F)c2N2CC[C@H](O)C2)CC1` [compound 172], for which the pIC50 was more than 7.60. In the case of `CC[C@H]1CN(c2nc(N)c(C(=O)NCCO)nc2Cl)CCN1C1CCN(Cc2ccc(C#N)cc2OCCO)CC1` [compound 173] it was more than 7.60; in that of `CC[C@H]1CN(c2nc(N)c(C(=O)NCCO)nc2Cl)CCN1C1CCN(Cc2ccc(OC(F)(F)F)cc2OCC(N)=O)CC1` [compound 174], more than 7.60; in that of `CC[C@H]1CN(c2nc(N)c(C(=O)NCCO)nc2Cl)CCN1C1CCN([C@@H](C(=O)OC)c2ccc(C#N)cc2)CC1` [compound 175], more than 7.60.

With `CC[C@H]1CN(c2nc(N)c(C(=O)NCCO)nc2Cl)CCN1C1CCN(Cc2ccc(Cl)cc2C(=O)NCCO)CC1` [compound 176], the pIC50 is more than 7.60. Turning to `CC[C@H]1CN(c2nc(N)c(C(=O)NCCO)nc2Cl)CCN1C1CCN([C@@H](C(=O)O)c2ccc(Cl)cc2)CC1` [compound 177], the pIC50 is 7.00 to 7.60. Take `CC[C@H]1CN(c2nc(N)c(C(=O)NCCO)nc2Cl)CCN1C1CCN(Cc2ccc(F)c(F)c2O)CC1` [compound 178]: the pIC50 is 7.00 to 7.60. `CC[C@H]1CN(c2nc(N)c(C(=O)NCCO)nc2Cl)CCN1C1CCN(C(CCNC(C)=O)c2ccc(Cl)cc2)CC1` (stereo partly shown) [compound 179]: the pIC50 was 7.00 to 7.60. For `CC[C@H]1CN(c2nc(N)c(C(=O)NCCO)nc2Cl)CCN1C1CCN(Cc2ccc(C#N)cc2O)CC1` [compound 180], the negative-log IC50 (pIC50) was 7.00 to 7.60.

As for `CC[C@H]1CN(c2nc(N)c(C(=O)NCCO)nc2Cl)CCN1C1CCN(Cc2cc(F)c(F)c(F)c2O)CC1` [compound 181], the pIC50 was 7.00 to 7.60. Turning to `CC[C@H]1CN(c2nc(N)c(C(=O)NCCO)nc2Cl)CCN1C1CCN([C@H](CO)c2ccc(F)c(F)c2)CC1` [compound 182], the pIC50 was 7.00 to 7.60.

In the case of `CC[C@H]1CN(c2nc(N)c(C(=O)NCCO)nc2Cl)CCN1C1CCN(Cc2ccc(F)c(F)c2N2CCOCC2)CC1` [compound 183], the pIC50 is 7.00 to 7.60. In the case of `CC[C@H]1CN(c2nc(N)c(C(=O)NCCO)nc2Cl)CCN1C1CCN(C(C(=O)O)c2ccc(Cl)cc2)CC1` (stereo partly shown) [compound 184] it was 7.00 to 7.60; in that of `CC[C@H]1CN(c2nc(N)c(C(=O)NCCO)nc2Cl)CCN1C1CCN([C@@H](C(=O)OC)c2ccc(F)c(F)c2)CC1` [compound 185], 7.00 to 7.60; in that of `CC[C@H]1CN(c2nc(N)c(C(=O)NCCO)nc2Cl)CCN1C1CCN(Cc2c(O)cc(Cl)cc2Cl)CC1` [compound 186], 7.00 to 7.60. As to `CC[C@H]1CN(c2nc(N)c(C(=O)NCCO)nc2Cl)CCN1C1CCN(C(CCOC)c2ccc(Cl)cc2)CC1` (stereo partly shown) [compound 187], the pIC50 is 7.00 to 7.60. Take `CC[C@H]1CN(c2nc(N)c(C(=O)NCCO)nc2Cl)CCN1C1CCN(Cc2ccc(F)c(F)c2N2CCC(=O)C2)CC1` [compound 188]: the pIC50 is 7.00 to 7.60. For `CC[C@H]1CN(c2nc(N)c(C(=O)NCCO)nc2Cl)CCN1C1CCN(Cc2ccc(Cl)cc2O[C@H]2CCOC2)CC1` [compound 189], the pIC50 is 7.00 to 7.60.

`CC[C@H]1CN(c2nc(N)c(C(=O)NCCO)nc2Cl)CCN1C1CCN(Cc2ccc(C#N)cc2OCC(=O)NCCO)CC1` [compound 191]: the pIC50 is 7.00 to 7.60.

For `CC[C@H]1CN(c2nc(N)c(C(=O)NCCO)nc2Cl)CCN1C1CCN([C@H](C(=O)OC)c2ccc(Cl)cc2)CC1` [compound 192], the pIC50 is less than 7.00. As to `CC[C@H]1CN(c2nc(N)c(C(=O)NCCO)nc2Cl)CCN1C1CCN(Cc2ccc(C#N)cc2OCCN2CCCC2=O)CC1` [compound 193], the pIC50 is less than 7.00. In the case of `CC[C@H]1CN(c2nc(N)c(C(=O)NCCO)nc2Cl)CCN1C1CCN(Cc2ccc(Cl)cc2C(C)C(=O)OC)CC1` (stereo partly shown) [compound 194] it was less than 7.00. On to `CC[C@H]1CN(c2nc(N)c(C(=O)NCCO)nc2Cl)CCN1C1CCN(Cc2ccc(Cl)cc2OCCN2CCCC2=O)CC1` [compound 195], for which the pIC50 was less than 7.00. With `CC[C@H]1CN(c2nc(N)c(C(=O)NCCO)nc2Cl)CCN1C1CCN(Cc2ccc(Cl)cc2NS(C)(=O)=O)CC1` [compound 196], the pIC50 was less than 7.00. In the case of `CC[C@H]1CN(c2nc(N)c(C(=O)NCCO)nc2Cl)CCN1C1CCN(Cc2ccc(Cl)cc2C(=O)N2CCOCC2)CC1` [compound 197] it was less than 7.00. As to `CC[C@H]1CN(c2nc(N)c(C(=O)NCCO)nc2Cl)CCN1C1CCN([C@H](C(=O)OC)c2ccc(F)c(F)c2)CC1` [compound 198], the negative logarithm of the IC50 (pIC50) was less than 7.00. As for `CC[C@H]1CN(c2nc(N)c(C(=O)NCCO)nc2Cl)CCN1C1CCN(C(CCN)c2ccc(Cl)cc2)CC1` (stereo partly shown) [compound 199], the pIC50 is less than 7.00. Take `CC[C@H]1CN(c2nc(N)c(C(=O)NCCO)nc2Cl)CCN1C1CCN([C@H](C(=O)OC)c2ccc(C#N)cc2)CC1` [compound 200]: the pIC50 was less than 7.00. As for `CC[C@H]1CN(c2nc(N)c(C(=O)NCCO)nc2Cl)CCN1C1CCN(Cc2c(F)cc(F)c(F)c2O)CC1` [compound 201], the pIC50 was less than 7.00. In the case of `CC[C@H]1CN(c2nc(N)c(C(=O)NCCO)nc2Cl)CCN1C1CCN(Cc2ccc(Cl)cc2C(C)C(=O)O)CC1` (stereo partly shown) [compound 202] it was less than 7.00; in that of `CC[C@H]1CN(c2nc(N)c(C(=O)NCCO)nc2Cl)CCN1C1CCN([C@H](C(=O)O)c2ccc(Cl)cc2)CC1` [compound 203], less than 7.00; in that of `CC[C@H]1CN(c2nc(N)c(C(=O)NCCO)nc2Cl)CCN1C1CCN(C(Cc2nn[nH]n2)c2ccc(Cl)cc2)CC1` (stereo partly shown) [compound 204], less than 7.00. Take `CC[C@H]1CN(c2nc(N)c(C(=O)NCCO)nc2Cl)CCN1C1CCN(Cc2ccc(N3CCOCC3)c(F)c2F)CC1` [compound 205]: the pIC50 was less than 7.00. Turning to `CC[C@H]1CN(c2nc(N)c(C(=O)NCCO)nc2Cl)CCN1C1CCN(C(C(=O)OC)c2ccc(Cl)cc2OC)CC1` (stereo partly shown) [compound 206], the pIC50 was less than 7.00. In the case of `CC[C@H]1CN(c2nc(N)c(C(=O)NCCO)nc2Cl)CCN1C1CCN(C(c2ccc(Cl)cc2)c2nccs2)CC1` (stereo partly shown) [compound 207] it was less than 7.00; in that of `CC[C@H]1CN(c2nc(N)c(C(=O)NCc3nccs3)nc2Cl)CCN1C1CCN(Cc2ccc(C#N)cc2)CC1` [compound 208], less than 7.00. As to `CC[C@H]1CN(c2nc(N)c(C(=O)N3CC[C@H](NS(C)(=O)=O)C3)nc2Cl)CCN1C1CCN(Cc2ccc(Cl)cc2)CC1` [compound 209], the pIC50 is less than 7.00. Take `CC[C@H]1CN(c2nc(N)c(C(=O)N[C@@H]3CCCNC3=O)nc2Cl)CCN1C1CCN(Cc2ccc(C#N)cc2)CC1` [compound 210]: the pIC50 was less than 7.00.
